Experimental data from ChEMBL document CHEMBL5370585, “Exploration and Biological Evaluation of 1,3-Diamino-7H-pyrrol[3,2-f]quinazoline Derivatives as Dihydrofolate Reductase Inhibitors” (J Med Chem, 2023).
In brackets after ≈: the same amount, converted by molar mass.

Tests used:
[1] = Stability in mouse plasma assessed as parent compound remaining at 5 ug/ml measured after 60 mins by LC-MS/MS analysis; format: ADME, cell-free; settings: at 5 µg/mL, read-out: Stability
[2] = target: T1, Dihydrofolate reductase (Homo sapiens) (UniProt P00374); test: Inhibition of human DHFR at 1 uM incubated for 10 mins in presence of NADPH by colorimetry based analysis relative to control
T1 sequence (whole entry): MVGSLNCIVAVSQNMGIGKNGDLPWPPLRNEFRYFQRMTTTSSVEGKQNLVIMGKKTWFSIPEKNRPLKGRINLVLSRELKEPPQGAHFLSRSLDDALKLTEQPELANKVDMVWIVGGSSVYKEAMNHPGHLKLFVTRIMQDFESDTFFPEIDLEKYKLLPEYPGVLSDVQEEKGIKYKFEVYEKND

[3] = Stability in mouse plasma assessed as parent compound remaining at 5 ug/ml measured after 20 mins by LC-MS/MS analysis; format: ADME, cell-free; settings: at 5 µg/mL, read-out: Stability
[4] = Stability in mouse plasma assessed as parent compound remaining at 5 ug/ml measured after 240 mins by LC-MS/MS analysis; format: ADME, cell-free; settings: at 5 µg/mL, read-out: Stability
[5] = Stability in mouse plasma assessed as parent compound remaining at 5 ug/ml measured after 1440 mins by LC-MS/MS analysis; format: ADME, cell-free; settings: at 5 µg/mL, read-out: Stability
HepG2 = test: Cytotoxicity against human HepG2 cells measured after 72 hrs by MTT assay; format: functional, cell-based; settings: HepG2, 72 h
[6] = Stability in mouse plasma assessed as parent compound remaining at 1 ug/ml measured after 45 mins by LC-MS/MS analysis; format: ADME, cell-free; settings: at 1 µg/mL, read-out: Stability
[7] = Metabolic stability in mouse liver microsomes assessed as intrinsic clearance at 1 uM measured upto 60 mins in presence of NADPH by LC-MS/MS analysis; format: ADME, Microsome; settings: read-out: CLH
[8] = Stability in mouse plasma assessed as parent compound remaining at 1 ug/ml measured after 20 mins by LC-MS/MS analysis; format: ADME, cell-free; settings: at 1 µg/mL, read-out: Stability
[9] = Toxicity in BALB/c mouse xenografted with mouse EMT6 cells assessed as effect on body weight at 2.5 mg/kg, ip measured on day 14 (reference value: 21.6 +/-0.6g); format: organism-based; settings: in vivo, 336 h, time 14 day
HCT-116 = test: Cytotoxicity against human HCT-116 cells measured after 72 hrs by MTT assay; format: functional, cell-based; settings: HCT-116, 72 h
[10] = AUC (0 to infinity) in ICR mouse at 10 mg/kg, ip measured after 5 to 24 hrs post administration by LC-MS/MS analysis; format: ADME, organism-based; set-up: time upper 24 hrs, dose 10 mg/kg, time lower 5 hrs, route ip; settings: ICR, in vivo
[11] = Stability in mouse plasma assessed as parent compound remaining at 5 ug/ml measured after 45 mins by LC-MS/MS analysis; format: ADME, cell-free; settings: at 5 µg/mL, read-out: Stability
[12] = Stability in mouse plasma assessed as parent compound remaining at 1 ug/ml measured after 60 mins by LC-MS/MS analysis; format: ADME, cell-free; settings: at 1 µg/mL, read-out: Stability
[13] = Toxicity in BALB/c mouse xenografted with mouse EMT6 cells assessed as effect on body weight at 5 mg/kg, ip measured on day 1 (reference value: 18.5 +/-0.5g); format: organism-based; settings: in vivo, 24 h, time 1 day
Staphylococcus aureus [14] = test: Antibacterial activity against Staphylococcus aureus ATCC 29213 incubated for 16 to 18 hrs by CLSI based broth dilution method; format: functional; settings: time 16-18 hrs
[15] = Stability in mouse plasma assessed as parent compound remaining at 5 ug/ml measured after 30 mins by LC-MS/MS analysis; format: ADME, cell-free; settings: at 5 µg/mL, read-out: Stability
[16] = Toxicity in BALB/c mouse xenografted with mouse EMT6 cells assessed as effect on body weight at 5 mg/kg, ip measured on day 14 (reference value: 21.6 +/-0.6g); format: organism-based; settings: in vivo, 336 h, time 14 day
[17] = Stability in mouse plasma assessed as parent compound remaining at 1 ug/ml measured after 240 mins by LC-MS/MS analysis; format: ADME, cell-free; settings: at 1 µg/mL, read-out: Stability
Acinetobacter baumannii = test: Antibacterial activity against Acinetobacter baumannii ATCC 19606 incubated for 16 to 18 hrs by CLSI based broth dilution method; format: functional; settings: time 16-18 hrs
EMT6 [18] = test: Antitumor activity against mouse EMT6 cells xenografted in BALB/c mouse model assessed as tumor growth inhibition at 2.5 mg/kg,ip administered every 3 days for 14 consecutive days relative to control; format: functional; set-up: scale not given: the % may be the effect or the level left; settings: time 14 day
[19] = Stability in mouse plasma assessed as parent compound remaining at 1 ug/ml measured after 1440 mins by LC-MS/MS analysis; format: ADME, cell-free; settings: at 1 µg/mL, read-out: Stability
[20] = Toxicity in BALB/c mouse xenografted with mouse EMT6 cells assessed as effect on body weight at 2.5 mg/kg, ip measured on day 1 (reference value: 18.5 +/-0.5g); format: organism-based; settings: in vivo, 24 h, time 1 day
[21] = Toxicity in BALB/c mouse xenografted with mouse EMT6 cells at 2.5 mg/kg, ip administered every 3 days for 14 consecutive days; format: organism-based; settings: in vivo, 336 h, time 14 day
EMT6 [22] = test: Antitumor activity against mouse EMT6 cells xenografted in BALB/c mouse model assessed as tumor weight at 2.5 mg/kg,ip administered every 3 days for 14 consecutive days (reference value: 1.53 +/-0.26g); format: functional; settings: time 14 day
[23] = Stability in mouse plasma assessed as parent compound remaining at 5 ug/ml measured after 120 mins by LC-MS/MS analysis; format: ADME, cell-free; settings: at 5 µg/mL, read-out: Stability
[24] = test system: Staphylococcus epidermidis; test: Antibacterial activity against Staphylococcus epidermidis ATCC 12228 incubated for 16 to 18 hrs by CLSI based broth dilution method; format: functional; settings: time 16-18 hrs
[25] = Stability in mouse plasma assessed as parent compound remaining at 1 ug/ml measured after 10 mins by LC-MS/MS analysis; format: ADME, cell-free; settings: at 1 µg/mL, read-out: Stability
[26] = Metabolic stability in mouse liver microsomes assessed as half life at 1 uM measured upto 60 mins in presence of NADPH by LC-MS/MS analysis; format: ADME, Microsome
[27] = Tmax in ICR mouse at 10 mg/kg, ip measured after 5 to 24 hrs post administration by LC-MS/MS analysis; format: ADME, organism-based; settings: in vivo, time 5-24 hrs
HGC-27 = test: Cytotoxicity against human HGC-27 cells measured after 72 hrs by MTT assay; format: functional, cell-based; settings: HGC-27, 72 h
EMT6 [28] = test: Antitumor activity against mouse EMT6 cells xenografted in BALB/c mouse model assessed as tumor weight at 5 mg/kg,ip administered every 3 days for 14 consecutive days (reference value: 1.53 +/-0.26g); format: functional; settings: time 14 day
[29] = Metabolic stability in mouse liver microsomes assessed as hepatic clearance at 1 uM measured upto 60 mins in presence of NADPH by LC-MS/MS analysis; format: ADME, Microsome; settings: 1 h
Staphylococcus aureus [30] = test: Antibacterial activity against methicillin-resistant Staphylococcus aureus ATCC 43300 incubated for 16 to 18 hrs by CLSI based broth dilution method; format: functional; settings: time 16-18 hrs
Escherichia coli = test: Antibacterial activity against Escherichia coli ATCC 25922 incubated for 16 to 18 hrs by CLSI based broth dilution method; format: functional; settings: time 16-18 hrs
EMT6 [31] = test: Antitumor activity against mouse EMT6 cells xenografted in BALB/c mouse model assessed as tumor growth inhibition at 5 mg/kg,ip administered every 3 days for 14 consecutive days relative to control; format: functional; set-up: scale not given: the % may be the effect or the level left; settings: time 14 day
[32] = Stability in mouse plasma assessed as parent compound remaining at 5 ug/ml measured after 10 mins by LC-MS/MS analysis; format: ADME, cell-free; settings: at 5 µg/mL, read-out: Stability
[33] = Stability in mouse plasma assessed as parent compound remaining at 1 ug/ml measured after 30 mins by LC-MS/MS analysis; format: ADME, cell-free; settings: at 1 µg/mL, read-out: Stability
[34] = Half life in ICR mouse at 10 mg/kg, ip measured after 5 to 24 hrs post administration by LC-MS/MS analysis; format: ADME, organism-based; settings: in vivo, time 5-24 hrs
Enterococcus faecalis = test: Antibacterial activity against Enterococcus faecalis ATCC 29212 incubated for 16 to 18 hrs by CLSI based broth dilution method; format: functional; settings: time 16-18 hrs
[35] = AUC (0 to t) in ICR mouse at 10 mg/kg, ip measured after 5 to 24 hrs post administration by LC-MS/MS analysis; format: ADME, organism-based; set-up: time 5-24 hrs, dose 10 mg/kg, route ip; settings: ICR, in vivo
[36] = Stability in mouse plasma assessed as parent compound remaining at 1 ug/ml measured after 120 mins by LC-MS/MS analysis; format: ADME, cell-free; settings: at 1 µg/mL, read-out: Stability
EMT6 [37] = test: Antitumor activity against mouse EMT6 cells xenografted in ip dosed BALB/c mouse model assessed as delay in tumor progression administered every 3 days for 14 consecutive days; format: functional, organism-based; settings: time 14.0 day
MCF7 = test: Cytotoxicity against human MCF7 cells measured after 72 hrs by MTT assay; format: functional, cell-based; settings: MCF7, 72 h

Work on `Cc1cc2c3c(N)nc(N)nc3ccc2n1Cc1nc2ccccc2s1` yielded a remaining at 1 h, 5 ug/ml [1] of 97.8%, an inhibition [2] of 99.1% and a remaining at 20 min, 5 ug/ml [3] of 98.6%. The remaining at 4 h, 5 ug/ml [4] was 97.5%, the remaining at 24 h, 5 ug/ml [5] was 97% and the IC50 (HepG2) was 180 nM. For the same molecule, the remaining at 0.75 h, 1 ug/ml [6] was 98.9%, the microsomal CLint at 1 µM [7] was 16.9 µL/min/mg and the remaining at 20 min, 1 ug/ml [8] was 99.3%. The Activity [9] was 14.9 g, the IC50 (HCT-116) was 1950 nM and the AUC(0-inf) [10] was 2740 ng·h/mL. It also gave a remaining at 0.75 h, 5 ug/ml [11] of 97.9%, a remaining at 1 h, 1 ug/ml [12] of 98.5% and an Activity [13] of 18.3 g. It also gave an MIC (Staphylococcus aureus [14]) of 0.5 µg/mL (≈ 1.39 µM), a remaining at 0.5 h, 5 ug/ml [15] of 98.3% and an Activity [16] of 17.6 g. For the same molecule, the remaining at 4 h, 1 ug/ml [17] was 98.5%, the MIC (Acinetobacter baumannii) was 4 µg/mL (≈ 11.1 µM) and the Activity (EMT6 [18]) was 71%. The remaining at 24 h, 1 ug/ml [19] was 97.3%, the Activity [20] was 18.4 g and the Activity [21] was “Non-Toxic”. For the same molecule, the Activity (EMT6 [22]) was 0.44 g, the remaining at 2 h, 5 ug/ml [23] was 97.3% and the MIC [24] was at most 0.004 µg/mL. It also gave a remaining at 10 min, 1 ug/ml [25] of 99.6%, a half-life at 1 µM [26] of 1.37 h and a Tmax [27] of 0.83 h. The IC50 (HGC-27) was 540 nM, the Activity (EMT6 [28]) was 0.95 g and the CLH [29] was 38.3 mL/min/kg. The MIC (Staphylococcus aureus [30]) was 0.25 µg/mL (≈ 0.694 µM), the MIC (Escherichia coli) was 1 µg/mL (≈ 2.77 µM) and the Activity (EMT6 [31]) was 37.7%. For the same molecule, the remaining at 10 min, 5 ug/ml [32] was 99%, the remaining at 0.5 h, 1 ug/ml [33] was 99.1% and the half-life [34] was 9.81 h. The MIC (Enterococcus faecalis) was 0.5 µg/mL (≈ 1.39 µM), the AUC(0-t) [35] was 2280 ng·h/mL and the remaining at 2 h, 1 ug/ml [36] was 98.4%. For the same molecule, the Activity (EMT6 [37]) was “Dose-Dependent Effect” and the IC50 (MCF7) was 430 nM.
